Assay results taken from US20220041641A1, “QUATERNARY AMMONIUM SALTS AS INHIBITORS OF TRIMETHYLAMINE PRODUCTION” (Senda Biosciences, Inc., priority 2018, published 2022).
Structures can show the parent of a compound that is named as a salt. Each block holds one compound with its values, some of them ahead of it.

Tests used:
[1] = assay type: in vitro ADME; conditions: simulated gi fluid, 1 µM, pH 1.6
Experimental: This assay was used to assess the stability of a conjugate in a stomach.
Medium was prepared by dissolving 2 g of sodium chloride in 0.6 L in ultrapure water (MilliQ®, Millipore Sigma, Darmstadt, Germany). The pH was adjusted to 1.6 with 1N hydrochloric acid, and the volume was then adjusted to 1 L with purified water.
60 mg FaSSIF powder (Biorelevant™, London, UK) were dissolved in 500 mL buffer (above). Pepsin was added (0.1 mg/mL) (Millipore Sigma, Darmstadt, Germany), and the solution was stirred. The resulting SGF media were used fresh for each experiment.
(§1) Test compounds were dissolved in DMSO stock to 1 mM. An aliquot of the DMSO stock solution was removed and diluted in the SGF Media in 15 mL falcon tubes to generate a total compound concentration of 1 μM. A 1 mL aliquot was immediately removed and diluted once with 1 volume of acetonitrile for T0 timepoint. The mixture was sealed and mixed at 37° C. in an incubator. Aliquots (1 mL) were removed at regular intervals and immediately quenched by the addition of 1 volume of acetonitrile. The resulting samples were analyzed by LCMS to determine degradation rates in SGF.

[2] = assay type: in vitro ADME; conditions: simulated gi fluid, 1 µM, pH 6.7
Experimental: This assay was used to assess the stability of a conjugate in a small intestine.
Phosphate buffer was prepared by dissolving 0.42 g of sodium hydroxide pellets and 3.95 g of monobasic sodium phosphate monohydrate and 6.19 g of sodium chloride in ultrapure water (MilliQ®, Millipore Sigma, Darmstadt, Germany). The pH was adjusted to 6.7 using aq. HCl and aq. NaOH, as necessary, and the solution was diluted with ultrapure water to produce 1 L of the pH 6.7 buffer.
112 mg FaSSIF powder (Biorelevant™, London, UK) was dissolved in 50 mL of the pH 6.7 buffer. 2 to 3 mL of the resulting solution were then added to 500 mg pancreatin (Millipore Sigma, Darmstadt, Germany). The resulting mixture was agitated by finger tapping the vessel containing the mixture until milky suspension formed. At this time, the remainder of the 50 mL FaSSiF/pH 6.7 buffer solution was added. The resulting suspension was flipped upside down 10 times to produce SIF, which was used fresh.
as §1, with “SIF media” for “SGF Media”, “produce” for “generate”, “mixture with a tested” for “total”, “agitated” for “mixed”, “rates.” for “rates in SGF.”

[3] = assay type: in vitro ADME; conditions: 1 µM
Experimental: This assay was used to assess the stability of a conjugate in a large intestine.
All experiments were performed in an anaerobic chamber containing 90% nitrogen, 5% hydrogen and 5% carbon dioxide. Colonic material was resuspended as a slurry (15% w/v final concentration) in pre-reduced, anaerobically sterilized dilution blanks (Anaerobe Systems AS-908). The colonic material was then inoculated into 96 well plates containing YCFAC media (Anaerobe Systems AS-680, 6.7 μL slurry into 1 mL total media). A compound was added to each individual well to reach a final analyte concentration of 1 μM, and the material was mixed by pipetting. Each sample was removed after set timepoints (0, 120, 240, 480, 1440, 2880 minutes after initiation of the assay), quenched with acetonitrile containing internal standard, and analyzed by LCMS.

[4] = target: CutC from Proteus mirabilis (Proteus mirabilis, UniProt B4EYG1); test: Cell-based assay for TMA production from a native producer (P. mirabilis); conditions: d9-TMA from 1 mM d9-choline, 5 h, 37° C.; value 10 given when no fit or % TMA remaining at 10 μM higher than 15%; read-out: Average IC50 Whole cell P. mirabilis
Procedure, shortened: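 Overnight anaerobic cultures of P. mirabilis or C. sporogenes, grown in BHI with 1 mM choline, were diluted and given 1 mM (trimethyl-d9)-choline plus compound at 10 μM final. After 5 h at 37° C., d9-TMA was quantified by LCMS.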

CutC/D enzyme = test: Acute mouse model (plasma TMAO on choline diet); assay type: in vivo, male C57BL/6 mice
Procedure, shortened: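 Male C57BL/6 mice fed a diet with 1.0% choline (g/g) received compound in water by oral gavage once daily on days 1–3. Plasma taken 20 h after the last dose was protein-precipitated and TMAO quantified by LC-MS/MS against a 0.05-100 μM d9-TMAO calibration curve in control plasma.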

in vivo = test: in vivo; set-up: species or system Sprague-Dawley rats; conditions: Sprague-Dawley, rat
Experimental: Sprague-Dawley rats (three rats per compound) were treated with a single intravenous (IV) 1 mg/kg dose or orally (PO) a single 10 mg/kg dose. Plasma concentrations of the conjugates were determined by LCMS at 5 minutes, 15 minutes, 30 minutes, 1 hour, 2 hours, 4 hours, 8 and 24 hours post compound administration. […] In addition, the plasma exposure and bioavailability of the active agent of was lower when dosed as a conjugate instead of the active agent alone.

[5] = Caco-2 permeability assay; assay type: in vitro ADME; conditions: human, Caco-2, pH 7.4
Experimental: Preparation of Caco-2 Cells: 50 μL and 25 mL of cell culture medium were added to each well of the Transwell insert and reservoir, respectively. The HTS transwell plates were incubated at 37° C., 5% CO2 for 1 hour before cell seeding. […] Cell culture medium was replaced every other day, beginning no later than 24 hours after initial plating.
Assessment of Cell Monolayer Integrity: Medium was removed from the reservoir and each Transwell insert and replaced with prewarmed fresh culture medium. Transepithelial electrical resistance (TEER) across the monolayer was measured using Millicell Epithelial Volt-Ohm measuring system (Millipore, USA). The Plate was returned to the incubator once the measurement was done. The TEER value was calculated according to the following equation: […]
Preparation of Solutions: 2 mM stock solutions in DMSO of control compounds were prepared and diluted with HBSS (10 mM HEPES, pH 7.4) to get 10 μM working solution. 0.2 mM stock solutions of test compounds in DMSO were prepared and diluted with HBSS (10 mM HEPES, pH 7.4 with 0.5% BSA) to get 1 μM working solution. Metoprolol, erythromycin and cimetidine were used as control compounds.
The Caco-2 plate was removed from the incubator. The monolayer was washed twice with pre-warmed HBSS (10 mM HEPES, pH 7.4). The plate was incubated at 37° C. for 30 minutes. To determine the rate of drug transport in the apical to basolateral direction, 125 μL of the working solution was added to the Transwell insert (apical compartment). A 50 μL sample was transferred immediately from the apical compartment to 200 μL of acetonitrile containing IS (100 nM alprazolam, 200 nM Caffeine and 100 nM tolbutamide) in a new 96-well plate as the initial donor sample (A-B) and it was vortexed at 1000 rpm for 10 minutes. The wells in the receiver plate (basolateral compartment) were filled with 235 μL of transport buffer. To determine the rate of drug transport in the basolateral to apical direction, 285 μL of the working solution were added to the receiver plate wells (basolateral compartment). A 50 μL sample was transferred immediately from the basolateral compartment to 200 μL of acetonitrile containing IS (100 nM alprazolam, 200 nM Caffeine and 100 nM tolbutamide) in a new 96-well plate as the initial donor sample (B-A) and it was vortexed at 1000 rpm for 10 minutes. The Transwell insert (apical compartment) was filled with 75 μL of transport buffer. The apical to basolateral direction and the basolateral to apical direction need to be done at the same time. The plates were incubated at 37° C. for 2 hours. At the end of the incubation, 50 μL samples from donor sides (apical compartment for Ap→Bl flux, and basolateral compartment for B1→Ap) and receiver sides (basolateral compartment for Ap→Bl flux, and apical compartment for B1→Ap) were transferred to wells of a new 96-well plate, followed by the addition of 4 volume of acetonitrile containing IS (100 nM alprazolam, 200 nM Caffeine and 100 nM tolbutamide). Samples were vortexed for 10 minutes, 50 μL samples were transferred to wells of a new 96-well plate, followed by the addition of 50 μL Hepes and 200 μL IS. All samples were vortexed for 10 minutes, and then centrifuged at 3,220 g for 40 minutes. An aliquot of 150 μL of the supernatant was mixed with an appropriate volume of ultra-pure water before LC-MS/MS analysis.
Apparent permeability (Papp) can be calculated for drug transport assays using the following equation: […]
Papp is apparent permeability (cm/s×10^−6);
Papp (B-A) indicates the apparent permeability coefficient in basolateral to apical direction, and
Papp (A-B) indicates the apparent permeability coefficient in apical to basolateral direction.

Sequence of CutC from Proteus mirabilis (B4EYG1 entry or part of it): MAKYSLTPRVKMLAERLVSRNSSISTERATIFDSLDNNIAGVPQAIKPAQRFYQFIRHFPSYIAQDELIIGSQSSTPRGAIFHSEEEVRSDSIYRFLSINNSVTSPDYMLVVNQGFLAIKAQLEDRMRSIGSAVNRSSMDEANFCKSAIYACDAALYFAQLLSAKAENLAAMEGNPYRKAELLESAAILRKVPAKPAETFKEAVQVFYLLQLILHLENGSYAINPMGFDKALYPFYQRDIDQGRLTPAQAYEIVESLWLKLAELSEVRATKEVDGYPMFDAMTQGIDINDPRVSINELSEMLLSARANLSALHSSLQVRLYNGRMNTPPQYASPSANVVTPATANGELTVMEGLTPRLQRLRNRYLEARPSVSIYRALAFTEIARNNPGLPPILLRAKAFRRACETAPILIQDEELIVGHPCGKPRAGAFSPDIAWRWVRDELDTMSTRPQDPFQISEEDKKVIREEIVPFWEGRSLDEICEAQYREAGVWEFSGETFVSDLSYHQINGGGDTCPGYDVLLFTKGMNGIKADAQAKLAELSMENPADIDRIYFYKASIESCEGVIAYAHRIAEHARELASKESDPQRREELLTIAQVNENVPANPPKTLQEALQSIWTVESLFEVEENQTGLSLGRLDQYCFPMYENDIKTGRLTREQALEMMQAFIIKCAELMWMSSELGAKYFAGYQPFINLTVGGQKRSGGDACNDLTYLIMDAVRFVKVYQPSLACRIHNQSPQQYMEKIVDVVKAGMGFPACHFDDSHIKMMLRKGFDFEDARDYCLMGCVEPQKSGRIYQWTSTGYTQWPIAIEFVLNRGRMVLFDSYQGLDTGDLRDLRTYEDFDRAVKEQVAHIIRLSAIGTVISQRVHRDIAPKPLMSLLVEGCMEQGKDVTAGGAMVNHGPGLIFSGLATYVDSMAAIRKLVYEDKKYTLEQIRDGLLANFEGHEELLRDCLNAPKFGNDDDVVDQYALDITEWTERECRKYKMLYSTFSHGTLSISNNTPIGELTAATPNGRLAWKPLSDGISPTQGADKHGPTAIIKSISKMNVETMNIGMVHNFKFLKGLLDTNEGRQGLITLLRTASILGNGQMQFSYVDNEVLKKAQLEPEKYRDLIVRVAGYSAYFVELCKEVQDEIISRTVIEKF
Sequence of CutC from Proteus mirabilis (B4EYG0 entry or part of it, further chain): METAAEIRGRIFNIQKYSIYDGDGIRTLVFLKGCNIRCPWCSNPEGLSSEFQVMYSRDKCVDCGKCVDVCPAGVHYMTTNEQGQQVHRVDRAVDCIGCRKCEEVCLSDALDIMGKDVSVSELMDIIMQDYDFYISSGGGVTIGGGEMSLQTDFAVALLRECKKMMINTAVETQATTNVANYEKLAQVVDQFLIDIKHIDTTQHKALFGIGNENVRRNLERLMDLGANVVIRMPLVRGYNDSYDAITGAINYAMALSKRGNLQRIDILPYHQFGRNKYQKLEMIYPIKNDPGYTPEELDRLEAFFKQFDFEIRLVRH

Assay 1- FaSSGF Stability: % Remaining at 1 hr [1]: 84.79% | Assay 2- FaSSIF Stability: % Remaining at 4 hr [2]: 30.79% | Assay 3- Colonic Material Stability Assay % Remaining at 24 hr [3]: 80%
Structure (SMILES): C#CC[N+](C)(C)CCO[C@@H]1O[C@H](COC(=O)CCC)[C@@H](OC(=O)CCC)[C@H](OC(=O)CCC)[C@H]1OC(=O)CCC.[I-] [Compound 1, N,N-dimethyl-N-(2-(((2R,3R,4S,5R,6R)-3,4,5-tris(butyryloxy)-6-((butyryloxy)methyl)tetrahydro-2H-pyran-2-yl)oxy)ethyl)prop-2-yn-1-aminium iodide]

Structure (SMILES): C#CC[N+](C)(C)CCO[C@@H]1O[C@H](COC(C)=O)[C@@H](OC(C)=O)[C@H](OC(C)=O)[C@H]1OC(C)=O.[I-] [Compound 7, N,N-dimethyl-N-(2-(((2R,3R,4S,5R,6R)-3,4,5-triacetoxy-6-(acetoxymethyl)tetrahydro-2H-pyran-2-yl)oxy)ethyl)prop-2-yn-1-aminium Iodide]
IC50 [4]: 3.16 µM | % change from vehicle control + choline diet (CutC/D enzyme; Table 4a, 358 mg/kg oral gavage days 1-3): −79.95% | Mean plasma TMAO (CutC/D enzyme; Table 4a, 358 mg/kg oral gavage days 1-3, plasma 20 h after last gavage): 6.90 µM | % change from vehicle control + choline diet (CutC/D enzyme; Table 4c, 35.8 mg/kg oral gavage days 1-3): −2.97% | Mean plasma TMAO (CutC/D enzyme; Table 4c, 35.8 mg/kg oral gavage days 1-3, plasma 20 h after last gavage): 20.4 µM | % change from vehicle control + choline diet (CutC/D enzyme; Table 4c, 107 mg/kg oral gavage days 1-3): −24.83% | Mean plasma TMAO (CutC/D enzyme; Table 4c, 107 mg/kg oral gavage days 1-3, plasma 20 h after last gavage): 15.8 µM | % change from vehicle control + choline diet (CutC/D enzyme; Table 4c, 358 mg/kg oral gavage days 1-3): −69.46% | Mean plasma TMAO (CutC/D enzyme; Table 4c, 358 mg/kg oral gavage days 1-3, plasma 20 h after last gavage): 6.41 µM | Cmax (in vivo; iv, 1 mg/kg): 19.7 µM | Cmax (in vivo; po, 10 mg/kg): 0.0162 µM | bioavailability (in vivo; po, 10 mg/kg): 1.1% | Papp A→B at 2 h, 1 µM [5]: 0.1 ×10⁻⁶ cm/s | Papp B→A at 2 h, 1 µM [5]: 0.15 ×10⁻⁶ cm/s

IC50 [4]: ≥ 10 µM | Assay 1- FaSSGF Stability: % Remaining at 1 hr [1]: 102.71% | Assay 3- Colonic Material Stability Assay % Remaining at 24 hr [3]: 110%
Structure (SMILES): C#CC[N+](C)(C)CCO[C@@H]1CO[C@H]2[C@@H]1OC[C@@H]2O [Compound 72, N-(2-(((3R,3aR,6S,6aR)-6-hydroxyhexahydrofuro[3,2-b]furan-3-yl)oxy)ethyl)-N,N-dimethylprop-2-yn-1-aminium trifluoroacetate]

Structure (SMILES): CC(=O)OC[C@H]1O[C@@H](OCC[N+](C)(CF)C2CC2)[C@H](OC(C)=O)[C@@H](OC(C)=O)[C@@H]1OC(C)=O.[I-] (stereo partly drawn) [Compound 86, N-(fluoromethyl)-N-methyl-N-(2-{[(2R,3R,4S,5R,6R)-3,4,5-tris(acetyloxy)-6-[(acetyloxy)methyl]oxan-2-yl]oxy}ethyl)cyclopropanaminium Iodide]
IC50 [4]: ≥ 10 µM | % change from vehicle control + choline diet (CutC/D enzyme; Table 4g, 37.3 mg/kg oral gavage days 1-3): −33% | Mean plasma TMAO (CutC/D enzyme; Table 4g, 37.3 mg/kg oral gavage days 1-3, plasma 20 h after last gavage): 18.6 µM | % change from vehicle control + choline diet (CutC/D enzyme; Table 4g, 112 mg/kg oral gavage days 1-3): −83% | Mean plasma TMAO (CutC/D enzyme; Table 4g, 112 mg/kg oral gavage days 1-3, plasma 20 h after last gavage): 4.72 µM | Assay 3- Colonic Material Stability Assay % Remaining at 24 hr [3]: 56%

Structure (SMILES): C#CC[N+](C)(C)CC(=O)O[C@@H]1O[C@H](COC(C)=O)[C@@H](OC(C)=O)[C@H](OC(C)=O)[C@H]1OC(C)=O [Compound 303, N,N-dimethyl-N-(2-oxo-2-(((2S,3R,4S,5R,6R)-3,4,5-triacetoxy-6-(acetoxymethyl)tetrahydro-2H-pyran-2-yl)oxy)ethyl)prop-2-yn-1-aminium Trifluoroacetate]
Assay 1- FaSSGF Stability: % Remaining at 1 hr [1]: 60.49% | Assay 2- FaSSIF Stability: % Remaining at 4 hr [2]: 0.03% | Assay 3- Colonic Material Stability Assay % Remaining at 24 hr [3]: 0.16%

Structure (SMILES): C#CC[N+](C)(C)CC(=O)OC[C@H]1OC(OC(C)=O)[C@H](OC(C)=O)[C@@H](OC(C)=O)[C@@H]1OC(C)=O.O=C([O-])C(F)(F)F (stereo partly drawn) [Compound 304, N,N-dimethyl-N-(2-oxo-2-(((2R,3R,4S,5R)-3,4,5,6-tetraacetoxytetrahydro-2H-pyran-2-yl)methoxy)ethyl)prop-2-yn-1-aminium Trifluoroacetate]
Assay 1- FaSSGF Stability: % Remaining at 1 hr [1]: 114.28% | Assay 2- FaSSIF Stability: % Remaining at 4 hr [2]: 13.44% | Assay 3- Colonic Material Stability Assay % Remaining at 24 hr [3]: 0.94%
